Data published in patent publication US20240043404A1 (AbbVie Inc., priority 2009, published 2024).
Where two headings read alike, the source gives them in different places.

System: RS4;11 cells
Test: RS4;11 cell viability assay (CellTiter Glo);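 also: acute lymphoblastic leukemia line RS4,11, EC50 derived from percentage of viable cells after treatment relative to untreated controls, cell killing taken as a measure of Bcl-2 inhibition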
Format: cell-based, human
Conditions: Homo sapiens, read-out: RS4
[1] = RS4-11, 48 h, 50,000 cells per well, 10% human serum, 48 hours, 11 EC50 Values

Protocol: The acute lymphoblastic leukemia (ALL) cell line RS4;11 was used as the primary human cell line to assess the cellular activity of Bcl-2 selective agents in vitro and their efficacy in vivo.
Cell cytotoxicity EC50 values were assessed using CellTiter Glo (Promega) according to the manufacturer's recommendations. The EC50 values were determined as a percentage of viable cells following treatment compared to the untreated control cells.

SMILES	EC50 [1] [nM]	EC50 (RS4-11, Table 5, direct comparison Z=N with corresponding analogs Z=C, 11 EC50) [nM]
CC1(C)CCC(CN2CCN(c3ccc(C(=O)NS(=O)(=O)c4ccc(N[C@H]5CC[C@H](NC6CCOCC6)CC5)c([N+](=O)[O-])c4)c(Oc4cnc5[nH]ccc5c4)c3)CC2)=C(c2ccc(Cl)cc2)C1 [Example 123, Trans-4-(4-{[2-(4-chlorophenyl)-4,4-dimethylcyclohex-1-en-1-yl]methyl}piperazin-1-yl)-N-[(3-nitro-4-{[4-(tetrahydro-2H-pyran-4-ylamino)cyclohexyl]amino}phenyl)sulfonyl]-2-(1H-pyrrolo[2,3-b]pyridin-5-yloxy)benzamide]	3.33	–
CC1(C)CCC(CN2CCN(c3ccc(C(=O)NS(=O)(=O)c4ccc(N[C@H]5CC[C@H](N(CC6CC6)CC6CC6)CC5)c([N+](=O)[O-])c4)c(Oc4cnc5[nH]ccc5c4)c3)CC2)=C(c2ccc(Cl)cc2)C1 [Example 64, Trans-N-{[4-({4-[bis(cyclopropylmethyl)amino]cyclohexyl}amino)-3-nitrophenyl]sulfonyl}-4-(4-{[2-(4-chlorophenyl)-4,4-dimethylcyclohex-1-en-1-yl]methyl}piperazin-1-yl)-2-(1H-pyrrolo[2,3-b]pyridin-5-yloxy)benzamide]	0.25	–
COCCOCCS(=O)(=O)c1ccc(S(=O)(=O)NC(=O)c2ccc(N3CCN(CC4=C(c5ccc(Cl)cc5)CC(C)(C)CC4)CC3)cc2Oc2cnc3[nH]ccc3c2)cc1[N+](=O)[O-] [Example 59, 4-(4-{[2-(4-chlorophenyl)-4,4-dimethylcyclohex-1-en-1-yl]methyl}piperazin-1-yl)-N-[(4-{[2-(2-methoxyethoxy)ethyl]sulfonyl}-3-nitrophenyl)sulfonyl]-2-(1H-pyrrolo[2,3-b]pyridin-5-yloxy)benzamide]	722	–
CC1(C)CCC(CN2CCN(c3ccc(C(=O)NS(=O)(=O)c4ccc(OCC5(F)CCOCC5)nc4)c(Oc4cnc5[nH]ccc5c4)c3)CC2)=C(c2ccc(Cl)cc2)C1 [Example 251, 4-(4-{[2-(4-chlorophenyl)-4,4-dimethylcyclohex-1-en-1-yl]methyl}piperazin-1-yl)-N-({6-[(4-fluorotetrahydro-2H-pyran-4-yl)methoxy]pyridin-3-yl}sulfonyl)-2-(1H-pyrrolo[2,3-b]pyridin-5-yloxy)benzamide]	918	–
CC1(C)CCC(CN2CCN(c3ccc(C(=O)NS(=O)(=O)c4ccc(N[C@H]5CC[C@H](N(C6CC6)C6CC6)CC5)c([N+](=O)[O-])c4)c(Oc4cnc5[nH]ccc5c4)c3)CC2)=C(c2ccc(Cl)cc2)C1 [Example 100, Trans-4-(4-{[2-(4-chlorophenyl)-4,4-dimethylcyclohex-1-en-1-yl]methyl}piperazin-1-yl)-N-[(4-{[4-(dicyclopropylamino)cyclohexyl]amino}-3-nitrophenyl)sulfonyl]-2-(1H-pyrrolo[2,3-b]pyridin-5-yloxy)benzamide]	137	–
CC1(C)CCC(CN2CCN(c3ccc(C(=O)NS(=O)(=O)c4ccc(NC5CCS(=O)(=O)CC5)c([N+](=O)[O-])c4)c(Oc4cnc5[nH]ccc5c4)c3)CC2)=C(c2ccc(Cl)cc2)C1 [Example 81, 4-(4-{[2-(4-chlorophenyl)-4,4-dimethylcyclohex-1-en-1-yl]methyl}piperazin-1-yl)-N-({4-[(1,1-dioxidotetrahydro-2H-thiopyran-4-yl)amino]-3-nitrophenyl}sulfonyl)-2-(1H-pyrrolo[2,3-b]pyridin-5-yloxy)benzamide]	48.1	–
CC1(C)CCC(CN2CCN(c3ccc(C(=O)NS(=O)(=O)c4ccc(OCCOC5CCOC5)c([N+](=O)[O-])c4)c(Oc4cnc5[nH]ccc5c4)c3)CC2)=C(c2ccc(Cl)cc2)C1 (centres unmarked) [Example 275, 4-(4-{[2-(4-chlorophenyl)-4,4-dimethylcyclohex-1-en-1-yl]methyl}piperazin-1-yl)-N-({3-nitro-4-[2-(tetrahydrofuran-3-yloxy)ethoxy]phenyl}sulfonyl)-2-(1H-pyrrolo[2,3-b]pyridin-5-yloxy)benzamide]	143	–
CC1(C)CCC(CN2CCN(c3ccc(C(=O)NS(=O)(=O)c4ccc(NC[C@@H]5CCCOC5)c([N+](=O)[O-])c4)c(Oc4cnc5[nH]ccc5c4)c3)CC2)=C(c2ccc(Cl)cc2)C1 [Example 11, 4-(4-{[2-(4-chlorophenyl)-4,4-dimethylcyclohex-1-en-1-yl]methyl}piperazin-1-yl)-N-[(3-nitro-4-{[(3S)-tetrahydro-2H-pyran-3-ylmethyl]amino}phenyl)sulfonyl]-2-(1H-pyrrolo[2,3-b]pyridin-5-yloxy)benzamide]	13.9	14
COCC(C)(C)CNc1ccc(S(=O)(=O)NC(=O)c2ccc(N3CCN(CC4=C(c5ccc(Cl)cc5)CC(C)(C)CC4)CC3)cc2Oc2cnc3[nH]ccc3c2)cc1[N+](=O)[O-] [Example 155, 4-(4-{[2-(4-chlorophenyl)-4,4-dimethylcyclohex-1-en-1-yl]methyl}piperazin-1-yl)-N-({4-[(3-methoxy-2,2-dimethylpropyl)amino]-3-nitrophenyl}sulfonyl)-2-(1H-pyrrolo[2,3-b]pyridin-5-yloxy)benzamide]	594	–

Results, then the molecule that gave them:

EC50 [1] [nM]	EC50 (RS4-11, Table 5, direct comparison Z=N with corresponding analogs Z=C, 11 EC50) [nM]	SMILES
> 1000	–	CC1(C)CCC(CC2CCN(c3ccc(C(=O)NS(=O)(=O)c4ccc(OCC5CCOCC5)c(Cl)c4)c(Oc4cnc5[nH]ccc5c4)c3)CC2)=C(c2ccc(Cl)cc2)C1 [Example 316, 4-(4-{[2-(4-chlorophenyl)-4,4-dimethylcyclohex-1-en-1-yl]methyl}piperidin-1-yl)-N-{[3-chloro-4-(tetrahydro-2H-pyran-4-ylmethoxy)phenyl]sulfonyl}-2-(1H-pyrrolo[2,3-b]pyridin-5-yloxy)benzamide]
47.8	–	CC1(C)CCC(CN2CCN(c3ccc(C(=O)NS(=O)(=O)c4ccc(OC[C@H]5CC[C@H](N6CCOCC6)CC5)c(Cl)c4)c(Oc4cnc5[nH]ccc5c4)c3)CC2)=C(c2ccc(Cl)cc2)C1 [Example 303, N-[(3-chloro-4-{[trans-4-(morpholin-4-yl)cyclohexyl]methoxy}phenyl)sulfonyl]-4-(4-{[2-(4-chlorophenyl)-4,4-dimethylcyclohex-1-en-1-yl]methyl}piperazin-1-yl)-2-(1H-pyrrolo[2,3-b]pyridin-5-yloxy)benzamide]
23.1	–	CC1(C)CCC(CN2CCN(c3ccc(C(=O)NS(=O)(=O)c4ccc(NC5CCC(NC6CC6(F)F)CC5)c([N+](=O)[O-])c4)c(Oc4cnc5[nH]ccc5c4)c3)CC2)=C(c2ccc(Cl)cc2)C1 (centres unmarked) [Example 349, 4-(4-{[2-(4-chlorophenyl)-4,4-dimethylcyclohex-1-en-1-yl]methyl}piperazin-1-yl)-N-{[4-({4-[(2,2-difluorocyclopropyl)amino]cyclohexyl}amino)-3-nitrophenyl]sulfonyl}-2-(1H-pyrrolo[2,3-b]pyridin-5-yloxy)benzamide]
287	–	CC1(C)CCC(CN2CCN(c3ccc(C(=O)NS(=O)(=O)c4cnc(OCC5CCOCC5)c(F)c4)c(Oc4cnc5[nH]ccc5c4)c3)CC2)=C(c2ccc(Cl)cc2)C1 [Example 293, 4-(4-{[2-(4-chlorophenyl)-4,4-dimethylcyclohex-1-en-1-yl]methyl}piperazin-1-yl)-N-{[5-fluoro-6-(tetrahydro-2H-pyran-4-ylmethoxy)pyridin-3-yl]sulfonyl}-2-(1H-pyrrolo[2,3-b]pyridin-5-yloxy)benzamide]
